Experiments:
Format in all cases: in vivo
[1] = system: Zea mays; assay: Pre-emergence crop plant compatibility
Description: (§1) Seeds of monocotyledonous and dicotyledonous weed plants and crop plants were placed in plastic or organic planting pots and covered with soil. The compounds of the invention, formulated in the form of wettable powders (WP) or as emulsion concentrates (EC), were then applied to the surface of the covering soil as aqueous suspension or emulsion with addition of 0.5% additive at a water application rate equivalent to […] (converted). After the treatment, the pots were placed in a greenhouse and kept under good growth conditions for the test plants. After about 3 weeks, the effect of the preparations was scored visually in comparison with untreated controls as percentages. For example, 100% activity=the plants have died, 0% activity=like control plants.
(§2) Here, the observed effects on selected crop plants are stated in comparison to the untreated controls (values in %).

[2] = system: Triticum aestivum; assay: Pre-emergence crop plant compatibility; conditions: application rate 20 g/ha
Description: as §1, §2

[3] = system: Glycine max; assay: Pre-emergence crop plant compatibility; conditions: application rate 80 g/ha
Description: as §1, §2

[4] = system: Brassica napus; assay: Pre-emergence crop plant compatibility; conditions: application rate 20 g/ha
Description: as §1, §2

[5] = system: Polygonum convolvulus; assay: Pre-emergence herbicidal action; conditions: scored after about 3 weeks
Description: as §1
(§3) Tables B1 to B11 below show the effects of selected compounds of the general formula (I) according to Tables I.1 to I.34 on various harmful plants and at an application rate corresponding to 80 g/ha and less, which were obtained by the experimental procedure mentioned above.

[6] = system: Viola tricolor; assay: Pre-emergence herbicidal action; conditions: application rate 20 g/ha, scored after about 3 weeks
Description: as §1, §3

[7] = system: Veronica persica; assay: Pre-emergence herbicidal action; conditions: scored after about 3 weeks
Description: as §1, §3

[8] = system: Echinochloa crus-galli; assay: Pre-emergence herbicidal action; conditions: application rate 80 g/ha, scored after about 3 weeks
Description: as §1, §3

[9] = system: Digitaria sanguinalis; assay: Pre-emergence herbicidal action; conditions: application rate 80 g/ha, scored after about 3 weeks
Description: as §1, §3

[10] = system: Abutilon theophrasti; assay: Pre-emergence herbicidal action; conditions: application rate 80 g/ha, scored after about 3 weeks
Description: as §1, §3

[11] = system: Amaranthus retroflexus; assay: Pre-emergence herbicidal action; conditions: scored after about 3 weeks
Description: as §1, §3

[12] = system: Alopecurus myosuroides; assay: Pre-emergence herbicidal action; conditions: application rate 80 g/ha
Description: as §1, §3

[13] = system: Setaria viridis; assay: Pre-emergence herbicidal action; conditions: application rate 80 g/ha, scored after about 3 weeks
Description: as §1, §3

[14] = system: Matricaria inodora; assay: Pre-emergence herbicidal action; conditions: application rate 80 g/ha, scored after about 3 weeks
Description: as §1, §3

[15] = system: Pharbitis purpurea; assay: Pre-emergence herbicidal action; conditions: application rate 80 g/ha, scored after about 3 weeks
Description: as §1, §3

[16] = system: Polygonum convolvulus; assay: Post-emergence herbicidal action; conditions: Fallopia convolvulus, 504 h, application rate 5 g/ha, read-out: Polygonum convolvulus (efficacy in %)
Summary of the method: (§4)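 Plants grown from seed in sandy loam in the greenhouse were sprayed at the one-leaf stage, 2 to 3 weeks after sowing, with WP or EC formulations in water plus 0.5% additive at 20 g/ha or less. Activity was rated visually after about 3 weeks against untreated controls (100% = plants died, 0% = like control).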

[17] = system: Veronica persica; assay: Post-emergence herbicidal action; conditions: Veronica persica, 504 h, application rate 5 g/ha, read-out: Veronica persica (efficacy in %)
Summary of the method: as §4

[18] = system: Abutilon theophrasti; assay: Post-emergence herbicidal action; conditions: Abutilon theophrasti, 504 h, application rate 5 g/ha, read-out: Abutilon theophrasti (efficacy in %)
Summary of the method: as §4

[19] = system: Setaria viridis; assay: Post-emergence herbicidal action; conditions: 504 h, application rate 5 g/ha, read-out: Setaria viridis (efficacy in %)
Summary of the method: as §4

[20] = system: Matricaria inodora; assay: Post-emergence herbicidal action; conditions: Tripleurospermum inodorum, 504 h, application rate 5 g/ha, read-out: Matricaria inodora (efficacy in %)
Summary of the method: as §4

[21] = system: Pharbitis purpurea; assay: Post-emergence herbicidal action; conditions: Ipomoea purpurea, 504 h, application rate 5 g/ha, read-out: Pharbitis purpurea (efficacy in %)
Summary of the method: as §4

[22] = system: Triticum aestivum; assay: Post-emergence crop plant compatibility
Summary of the method: (§5)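 Greenhouse plants in sandy loam were sprayed at the one-leaf stage, 2–3 weeks after sowing, with WP or EC formulations in water plus 0.5% additive at […]. Damage was rated visually after about 3 weeks as % versus untreated controls, where 100% means dead plants and 0% means like controls.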

[23] = system: Brassica napus; assay: Post-emergence crop plant compatibility
Summary of the method: as §5

[24] = system: Oryza sativa; assay: Post-emergence crop plant compatibility; conditions: application rate 5 g/ha
Summary of the method: as §5

[25] = system: Zea mays; assay: Comparative post-emergence crop plant compatibility (with Mero and AMS)
Description: (§6) Seeds of mono- or dicotyledonous weed plants were sown in pots (diameter 7 cm) with sandy loam soil, germinated under optimium growth conditions and cultivated for 21 days.
(§7) The compounds, formulated in the form of wettable powders (WP) or as emulsion concentrates (EC), were sprayed onto the green parts of the plants as aqueous suspension or emulsion with addition of 1.5 l/ha Mero and 2 kg/ha AMS at a water application rate of 300 l/ha (converted).
(§8) After the test plants had been kept in the greenhouse under optimum growth conditions for 21 days, the activity of the preparations was rated visually in comparison to untreated control plants.
(§9) For example, 100% action=the plants have died and
(§10) 0% action=like control plants.
(§11) Tables C4 and C5 below show the effects of a compound according to the invention (114-442) and a compound from WO2019/101551 (No. 16) on various crop plants and at an application rate corresponding to 6 g/ha and less, which were obtained by the experimental procedure mentioned above.

[26] = system: Glycine max; assay: as above
Description: as §6, §7, §8, §9, §10, §11

[27] = system: Solanum nigrum; assay: Comparative post-emergence herbicidal action (with Mero and AMS); conditions: with 1.5 l/ha Mero and 2 kg/ha AMS, rated after 21 days
Description: as §6, §7, §8, §9, §10
(§12) Tables C1-C3 below show the effects of a compound according to the invention (I.14-442) and a structurally related compound from WO2019/101551 (No. 16) on various harmful plants and at an application rate corresponding to 18 g/ha and less, which were obtained by the experimental procedure mentioned above.

[28] = system: Polygonum convolvulus; assay: as above; conditions: with 1.5 l/ha Mero and 2 kg/ha AMS, rated after 21 days
Description: as §6, §7, §8, §9, §10, §12

[29] = system: Xanthium strumarium; assay: as above; conditions: with 1.5 l/ha Mero and 2 kg/ha AMS, rated after 21 days
Description: as §6, §7, §8, §9, §10, §12

CCOC(=O)CCOc1ncccc1Sc1cc(-n2c(=O)cc(C(F)(F)F)n(N)c2=O)c(F)cc1Cl [I.5-442, Ethyl 3-{[3-({5-[3-amino-2,6-dioxo-4-(trifluoromethyl)-3,6-dihydropyrimidin-1(2H)-yl]-2-chloro-4-fluorophenyl}sulfanyl)pyridin-2-yl]oxy}propanoate]
Zea mays (efficacy in %) ([1]; application rate 20 g/ha): 0%
Zea mays (efficacy in %) ([1]; application rate 80 g/ha): 20%
Triticum aestivum (efficacy in %) [2]: 20%
Glycine max (efficacy in %) [3]: 0%
Brassica napus (efficacy in %) [4]: 0%
Polygonum convolvulus (efficacy in %) ([5]; application rate 20 g/ha): 100%
Polygonum convolvulus (efficacy in %) ([5]; application rate 80 g/ha): 100%
Viola tricolor (efficacy in %) [6]: 100%
Veronica persica (efficacy in %) ([7]; application rate 20 g/ha): 90%
Veronica persica (efficacy in %) ([7]; application rate 80 g/ha): 100%
Echinochloa crus-galli (efficacy in %) [8]: 80%
Digitaria sanguinalis (efficacy in %) [9]: 80%
Abutilon theophrasti (efficacy in %) [10]: 100%
Amaranthus retroflexus (efficacy in %) ([11]; application rate 20 g/ha): 100%
Amaranthus retroflexus (efficacy in %) ([11]; application rate 80 g/ha): 100%
Alopecurus myosuroides (efficacy in %) [12]: 80%
Setaria viridis (efficacy in %) [13]: 100%
Matricaria inodora (efficacy in %) [14]: 90%
Pharbitis purpurea (efficacy in %) [15]: 100%
pest or weed control at 5 g/ha [16]: 100%
pest or weed control at 5 g/ha [17]: 100%
pest or weed control at 5 g/ha [18]: 100%
pest or weed control at 5 g/ha [19]: 90%
pest or weed control at 5 g/ha [20]: 80%
pest or weed control at 5 g/ha [21]: 100%
Triticum aestivum (efficacy in %) ([22]; application rate 1.25 g/ha): 10%
Triticum aestivum (efficacy in %) ([22]; application rate 5 g/ha): 20%
Brassica napus (efficacy in %) [23]: 0%
Brassica napus (efficacy in %) ([23]; application rate 5 g/ha): 20%
Oryza sativa (efficacy in %) [24]: 20%

CCOC(=O)COc1ncccc1Oc1cc(-n2c(=O)c(C)c(C(F)(F)F)n(C)c2=O)c(F)cc1Cl [No. 16]
Zea mays (efficacy in %) ([25]; application rate 2 g/ha): 40%
Zea mays (efficacy in %) ([25]; application rate 6 g/ha): 50%
Glycine max (efficacy in %) ([26]; application rate 2 g/ha): 40%
Glycine max (efficacy in %) ([26]; application rate 6 g/ha): 50%
Solanum nigrum (efficacy in %) ([27]; application rate 6 g/ha): 80%
Solanum nigrum (efficacy in %) ([27]; application rate 18 g/ha): 80%
Polygonum convolvulus (efficacy in %) ([28]; application rate 6 g/ha): 65%
Polygonum convolvulus (efficacy in %) ([28]; application rate 18 g/ha): 75%
Xanthium strumarium (efficacy in %) ([29]; application rate 6 g/ha): 50%
Xanthium strumarium (efficacy in %) ([29]; application rate 18 g/ha): 85%

From patent US20220274954A1, “SUBSTITUTED N-PHENYL-N-AMINOUARCILS AND SALTS THEREOF AND USE THEREOF AS HERBICIDAL AGENTS” (Bayer Aktiengesellschaft, priority 2019, published 2022)
